# Target: T1, prostaglandin endoperoxide synthase-2 (PGHS-2) (Mus musculus, UniProt Q05769)
# T1 sequence (Q05769 18-604): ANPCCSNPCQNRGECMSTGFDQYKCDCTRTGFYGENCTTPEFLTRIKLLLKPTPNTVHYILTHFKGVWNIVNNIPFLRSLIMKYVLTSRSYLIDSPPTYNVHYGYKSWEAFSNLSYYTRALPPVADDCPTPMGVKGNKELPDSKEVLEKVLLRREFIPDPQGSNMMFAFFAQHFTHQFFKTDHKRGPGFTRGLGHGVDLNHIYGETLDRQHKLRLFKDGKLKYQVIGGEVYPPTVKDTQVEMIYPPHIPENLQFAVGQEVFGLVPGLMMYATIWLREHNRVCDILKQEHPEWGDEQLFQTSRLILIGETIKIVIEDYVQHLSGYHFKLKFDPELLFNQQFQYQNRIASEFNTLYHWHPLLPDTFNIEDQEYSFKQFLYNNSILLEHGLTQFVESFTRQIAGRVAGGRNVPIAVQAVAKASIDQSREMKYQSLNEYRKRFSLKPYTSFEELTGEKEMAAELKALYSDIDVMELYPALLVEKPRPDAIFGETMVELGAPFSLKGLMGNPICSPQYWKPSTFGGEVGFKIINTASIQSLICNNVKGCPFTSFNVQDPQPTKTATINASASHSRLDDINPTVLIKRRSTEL
# Experiment: oxygen uptake assay of purified enzyme
# Type: biochemical
compound,measurement,value
"CCCCC/C=C\C/C=C\C/C=C\C/C=C\CCCC(=O)Nc1cccc(O)c1 [3-HPAA, N-(3-Hydroxyphenyl)eicosa-5,8,11,14-tetraenamide]",IC50,1600 nM
